Experimental data taken from US20260285850A1, “SUBSTITUTED OXAZOLIDINONES AND IMIDAZOLINONES AS HERBICIDES” (FMC CORPORATION, priority 2023, published 2026).

Key:
Assay type in all cases: in vivo
soybean (Glycine max) [1] = assay: Test A postemergence application, visual injury rating 0-100; conditions: Postemergence
Description: (§1) Seeds of plant species selected from barnyardgrass (Echinochloa crus-galli), blackgrass (Alopecurus myosuroides), corn (Zea mays), foxtail, giant (giant foxtail, Setaria faberi), green foxtail (Setaria viridis), goosegrass (Eleusine indica), kochia (Bassia scoparia), oat, wild (wild oat, Avena fatua), palmer (palmer amaranth, palmer pigweed, Amaranthus palmeri), ragweed (common ragweed, Ambrosia artemisiifolia), ryegrass, Italian (italian ryegrass, Lolium multiflorum), soybean (Glycine max) and wheat (Triticum aestivum) were planted into a blend of loam soil and sand and treated preemergence with a directed soil spray using test chemicals formulated in a non-phytotoxic solvent mixture which included a surfactant.
(§2) At the same time, plants selected from these crops and weed species and also galium (catchweed bedstraw, Galium aparine) and horseweed (Erigeron canadensis) were planted in pots containing the same blend of loam soil and sand and treated with postemergence applications of test chemicals formulated in the same manner. Plants ranged in height from 2 to 10 cm and were in the one- to two-leaf stage for the postemergence treatment. Treated plants and untreated controls were maintained in a greenhouse for 10 days, after which time all treated plants were compared to untreated controls and visually evaluated for injury. Plant response ratings, summarized in Table A, are based on a 0 to 100 scale where 0 is no effect and 100 is complete control. A dash (-) response means no test result.

corn (Zea mays) [2] = assay: as above; conditions: Postemergence
Description: as §1, §2

[3] = system: ragweed (common ragweed, Ambrosia artemisiifolia); assay: as above; conditions: Postemergence
Description: as §1, §2

kochia (Bassia scoparia) [4] = assay: as above; conditions: Postemergence
Description: as §1, §2

[5] = system: blackgrass (Alopecurus myosuroides); assay: as above; conditions: Postemergence
Description: as §1, §2

[6] = system: galium (catchweed bedstraw, Galium aparine); assay: as above; conditions: Postemergence
Description: as §1, §2

[7] = system: horseweed (Erigeron canadensis); assay: as above; conditions: Postemergence
Description: as §1, §2

[8] = system: palmer (palmer amaranth, palmer pigweed, Amaranthus palmeri); assay: as above; conditions: Postemergence
Description: as §1, §2

[9] = system: wheat (Triticum aestivum); assay: as above; conditions: Postemergence
Description: as §1, §2

[10] = system: ryegrass, Italian (italian ryegrass, Lolium multiflorum); assay: as above; conditions: Postemergence
Description: as §1, §2

[11] = system: barnyardgrass (Echinochloa crus-galli); assay: as above; conditions: Postemergence
Description: as §1, §2

[12] = system: oat, wild (wild oat, Avena fatua); assay: as above; conditions: Postemergence
Description: as §1, §2

soybean (Glycine max) [13] = assay: Test A preemergence soil spray, visual injury rating 0-100; conditions: 10 days, 0 = no effect, 100 = complete control
Description: as §1, §2

corn (Zea mays) [14] = assay: as above; conditions: 10 days, 0 = no effect, 100 = complete control
Description: as §1, §2

[15] = system: ragweed (common ragweed, Ambrosia artemisiifolia); assay: as above; conditions: 10 days, 0 = no effect, 100 = complete control
Description: as §1, §2

kochia (Bassia scoparia) [16] = assay: as above; conditions: 10 days, 0 = no effect, 100 = complete control
Description: as §1, §2

[17] = system: blackgrass (Alopecurus myosuroides); assay: as above; conditions: 10 days, 0 = no effect, 100 = complete control
Description: as §1, §2

[18] = system: palmer (palmer amaranth, palmer pigweed, Amaranthus palmeri); assay: as above; conditions: 10 days, 0 = no effect, 100 = complete control
Description: as §1, §2

[19] = system: wheat (Triticum aestivum); assay: as above; conditions: 10 days, 0 = no effect, 100 = complete control
Description: as §1, §2

[20] = system: ryegrass, Italian (italian ryegrass, Lolium multiflorum); assay: as above; conditions: 10 days, 0 = no effect, 100 = complete control
Description: as §1, §2

[21] = system: barnyardgrass (Echinochloa crus-galli); assay: as above; conditions: 10 days, 0 = no effect, 100 = complete control
Description: as §1, §2

[22] = system: oat, wild (wild oat, Avena fatua); assay: as above; conditions: 10 days, 0 = no effect, 100 = complete control
Description: as §1, §2

[23] = 31 g ai/ha, greenhouse 10 days, 0 no effect, 100 complete control
[24] = 125 g ai/ha, 10 days, 0 is no effect, 100 is complete control

Compound: CCCS(=O)(=O)OC(=O)C1C=CC(NC(=O)C2(C)CN(c3cc(Cl)cc(Cl)c3)C(=O)O2)C1 (mixture of isomers) [Compound 79]
- Soybean plant response rating (0 to 100 scale) (soybean (Glycine max) [1]; [23]): 40
- Soybean plant response rating (0 to 100 scale) (soybean (Glycine max) [1]; [24]): 90
- Corn plant response rating (0 to 100 scale) (corn (Zea mays) [2]; [23]): 90
- Corn plant response rating (0 to 100 scale) (corn (Zea mays) [2]; [24]): 100
- Ragweed plant response rating (0 to 100 scale) [3, 23]: 50
- Ragweed plant response rating (0 to 100 scale) [3, 24]: 60
- Kochia plant response rating (0 to 100 scale) (kochia (Bassia scoparia) [4]; [23]): 70
- Kochia plant response rating (0 to 100 scale) (kochia (Bassia scoparia) [4]; [24]): 80
- Blackgrass plant response rating (0 to 100 scale) [5, 23]: 60
- Blackgrass plant response rating (0 to 100 scale) [5, 24]: 90
- Galium plant response rating (0 to 100 scale) [6, 23]: 80
- Galium plant response rating (0 to 100 scale) [6, 24]: 80
- Horseweed plant response rating (0 to 100 scale) [7, 23]: 40
- Horseweed plant response rating (0 to 100 scale) [7, 24]: 70
- Amaranth, Palmer / Pigweed, Palmer plant response rating (0 to 100 scale) [8, 23]: 70
- Amaranth, Palmer / Pigweed, Palmer plant response rating (0 to 100 scale) [8, 24]: 90
- Wheat plant response rating (0 to 100 scale) [9, 23]: 80
- Wheat plant response rating (0 to 100 scale) [9, 24]: 90
- Ryegrass, Italian plant response rating (0 to 100 scale) [10, 23]: 50
- Ryegrass, Italian plant response rating (0 to 100 scale) [10, 24]: 60
- Barnyardgrass plant response rating (0 to 100 scale) [11, 23]: 90
- Barnyardgrass plant response rating (0 to 100 scale) [11, 24]: 90
- Oat, Wild plant response rating (0 to 100 scale) [12, 23]: 90
- Oat, Wild plant response rating (0 to 100 scale) [12, 24]: 90
- Soybean plant response rating (0-100) (soybean (Glycine max) [13]; 31 g ai/ha): 0
- Soybean plant response rating (0 to 100 scale) (soybean (Glycine max) [13]; 125 g ai/ha): 70
- Corn plant response rating (0-100) (corn (Zea mays) [14]; 31 g ai/ha): 0
- Corn plant response rating (0 to 100 scale) (corn (Zea mays) [14]; 125 g ai/ha): 30
- Ragweed plant response rating (0-100) ([15]; 31 g ai/ha): 0
- Ragweed plant response rating (0 to 100 scale) ([15]; 125 g ai/ha): 20
- Kochia plant response rating (0-100) (kochia (Bassia scoparia) [16]; 31 g ai/ha): 30
- Kochia plant response rating (0 to 100 scale) (kochia (Bassia scoparia) [16]; 125 g ai/ha): 70
- Blackgrass plant response rating (0-100) ([17]; 31 g ai/ha): 10
- Blackgrass plant response rating (0 to 100 scale) ([17]; 125 g ai/ha): 30
- Amaranth, Palmer plant response rating (0-100) ([18]; 31 g ai/ha): 80
- Amaranth, Palmer plant response rating (0 to 100 scale) ([18]; 125 g ai/ha): 90
- Wheat plant response rating (0-100) ([19]; 31 g ai/ha): 10
- Wheat plant response rating (0 to 100 scale) ([19]; 125 g ai/ha): 80
- Ryegrass, Italian plant response rating (0-100) ([20]; 31 g ai/ha): 20
- Ryegrass, Italian plant response rating (0 to 100 scale) ([20]; 125 g ai/ha): 80
- Barnyardgrass plant response rating (0-100) ([21]; 31 g ai/ha): 30
- Barnyardgrass plant response rating (0 to 100 scale) ([21]; 125 g ai/ha): 90
- Oat, Wild plant response rating (0-100) ([22]; 31 g ai/ha): 20
- Oat, Wild plant response rating (0 to 100 scale) ([22]; 125 g ai/ha): 30
